Results reported in patent US20220280581A1, “BENEFICIAL BACTERIA AND SECRETORY IMMUNOGLOBULIN A” (priority 2019, published 2022).

Test: BLI persistence / colonization in mice (feces)
Type: in vivo, BALBc mice
Protocol: Mice: 6-week old female BALBc mice were purchased from The Jackson Labs. Mice were housed in an American Association for the Accreditation of Laboratory Animal Care-accredited facility, and procedures were conducted in compliance with the University of California Institutional Animal Care and Use Committee. Mice were co-housed 5 mice per cage in the Training and Research Animal Care Services vivarium at the University of California, Davis under conventional conditions with free access to standard chow RM1P (801151, Special Diet Services, Witham, England) and sterilized tap water with or without 2′FL. Mice were acclimated for 1 week prior to treatment. Mice were euthanized by decapitation following deep anesthesia with 100 mg/kg ketamine and 10 mg/kg xylazine administered by intraperitoneal injection.
Tissue Collection: Fecal samples were collected aseptically every 2 days for BLI detection. During necropsy, segments of duodenum, ileum, and colon were sectioned. First, Peyer's patches (PP) were collected and stored in 200 μL PBS in bead-beating tubes for homogenization and plating on blue/white screening agar. Duodenum, ileum, colon and cecum contents were collected into sterile tubes for bacterial analysis.
Bacterial plating and counting: PP, luminal contents and fecal samples were subjected to bead beating for 60 s at 4 m/s using a FastPrep homogenizer and 2 mm zirconium ceramic beads. Homogenate was serially diluted and plated on LB agar with kanamycin, x-gal and IPTG (blue-white screening agar) for differentiating JS107 and SJF10 strains, or further processed for DNA extraction and RT-qPCR for quantitation of BLI. […]
Strain-Specific qPCR: BLI was detected in fecal samples and intestinal contents following DNA extraction as described in Frese et al.^15 using the following primers: BLON0915F 5′[…]3′ and BLON0915R 5′ […]3′. […]

## Bifidobacterium longum ssp. infantis ATCC 15697
5-6 week old BALBc mice fed water
  increase of colonization in the gastrointestinal tract with SIgA association: 4 log-scale
Mice supplemented with an HMO (10% 2′ fucosyllactose)
  increase of colonization in the gastrointestinal tract with SIgA association: 5 log-scale
One day post oral administration, vs not pre-incubated
  higher concentration in feces when pre-incubated with milk SIgA: 10 ×
